Data on one molecule can be found in US6421455B1, “Method for detecting cancer on skin of humans and mammals and arrangement for performing the method” (Medeikonos AB, priority 1996, dated 2002).

Each structure is given as a SMILES string.

Data set [1] concerns skin cancer (tumours) on skin. Kind of data set: Imaging fluorescence spectroscopy of skin after topical ALA application. The class given is in vivo, human. The conditions noted are these: exciting light about 0,5 mW/cm^2, exposing time 2 s. How it is done:
(§1) The method according to the invention is carried out in the way that first a water-in-oil emulsion or an oil-in-water emulsion is prepared form a compound called delta amino levulinic acid (ALA) having an ALA concentration of 5-25%. […] This agent which has the formula I is normally produced in the body in the […] and is a building stone for the haemoglobin. [drawing 1]

Data set [2] is described as follows: Solubility of ALA in water. The data set is classed as physicochemical. The conditions noted are these: ALA in the form of powder. The procedure:
as §1

On to `NCC(=O)CCC(=O)O` [ALA, delta amino levulinic acid], for which, in data set [1] (FIG. 1, back of a person), the “average fluorescence level within area B (ALA-treated skin without detected tumours) relative to area A (untreated skin, skin auto fluorescence)” value is on record as 1,9 × and the “fluorescence intensity of white-contoured areas (tumours, areas 1-4) relative to skin auto fluorescence” value is reported as 2,75 ×. Also, in data set [1] (FIG. 2, breast of a person), the “average fluorescence level in area B (ALA-treated skin without detected tumours) relative to area A (untreated skin, skin auto fluorescence)” value is given as 2,0 × and the “fluorescence intensity of white-contoured areas (tumour, area 7) relative to skin auto fluorescence” value is > 2,75 ×. Also, the solubility in water result in data set [2] is “easily solved in water”.
